{
  "source": "patent US20070049627A1",
  "about": "“Treating vulvodynia using prodrugs of GABA analogs” (priority 2005, published 2007)",
  "key": {"[1]": {"test": "Randomized, crossover, fed/fasted single-dose pharmacokinetic study of oral sustained release tablets of compound (3)", "format": "in vivo, human", "conditions": "for AUC of compound (3) in blood as percent of corresponding AUC of gabapentin in blood / maximum intact compound (3) concentration as percent of corresponding peak gabapentin concentration: sustained release tablets oral", "description": "A randomized, crossover, fed/fasted single-dose study of the safety, tolerability, and pharmacokinetics of oral administration of 1-{[(α-isobutanoyloxyethoxy)carbonyl]aminomethyl}-1-cyclohexane acetic acid (3) in healthy adult subjects was conducted. The oral sustained release dosage form of Example 6 was used in this study. The study was designed to evaluate the performance of this formulation in humans in comparison with the commercial gabapentin capsule formulation (Neurontin®, Pfizer). Twelve healthy adult volunteers (7 males and 5 females) participated in the study. Mean body weight was 75.6 kg. All subjects received two different treatments in a random order with a one-week washout between treatments. The two treatments were: (A) a single oral dose of Example 1 tablets (2×600 mg) after an overnight fast; and (B) a single oral dose of Example 1 tablets (2×600 mg) after a high fat breakfast.\nBlood and plasma samples were collected from all subjects prior to dosing, and at 0.5, 1, 1.5, 2, 3, 4, 6, 8, 12, 18, 24, and 36 hours after dosing. Urine samples were collected from all subjects prior to dosing, and complete urine output was obtained at the 0-4 h, 4-8 h, 8-12 h, 12-18 h, 18-24 h, and 24-36 h intervals after dosing. Blood samples were quenched immediately with methanol and stored frozen at […]. Sample aliquots were prepared for analysis of gabapentin and compound (3) using sensitive and specific LC/MS/MS methods."}, "[2]": {"conditions": "in vivo, po"}, "[3]": {"test": "Tmax of immediate release formulations following oral administration", "conditions": "in vivo"}, "[4]": {"conditions": "typical value used for comparison; cited from earlier work"}, "[5]": {"tested_on": "patients suffering from chronic vulvar pain", "conditions": "increasing amounts of gabapentin over 12 weeks, cited from earlier work"}, "[6]": {"conditions": "sustained release tablets 2×600 mg oral, fasted subjects"}, "[7]": {"conditions": "sustained release tablets 2×600 mg oral, fed subjects"}},
  "note": "Where two headings read alike, the source gives them in different places.",
  "data": [
    {"smiles": "CC(OC(=O)NCC1(CC(=O)O)CCCCC1)OC(=O)C(C)C", "note": "(stereo not drawn) [compound (3), 1-{[(α-Isobutanoyloxyethoxy)carbonyl]aminomethyl}-1-Cyclohexane Acetic Acid]", "values": [
      {"measurement": "Cmax of gabapentin in blood", "setting": "[1]; healthy adults, single oral dose sustained release tablets 2×600 mg, after a high fat breakfast", "value": "6240 ± 1550", "unit": "ng/mL"},
      {"measurement": "mean±SD Cmax for gabapentin in blood", "setting": "[1]; healthy adults, single oral dose sustained release tablets 2×600 mg, fasted", "value": "4210 ± 1150", "unit": "ng/mL"},
      {"measurement": "AUC of gabapentin in blood", "setting": "[1]; healthy adults, sustained release tablets 2×600 mg oral, after a high fat breakfast", "value": "83000 ± 21800", "unit": "ng·h/mL"},
      {"measurement": "mean±SD AUC for gabapentin in blood", "setting": "[1]; healthy adults, sustained release tablets 2×600 mg oral, fasted", "value": "54500 ± 12200", "unit": "ng·h/mL"},
      {"measurement": "apparent terminal elimination half-life for gabapentin in blood", "setting": "[1]; [6]", "value": "6.47 ± 0.77", "unit": "h"},
      {"measurement": "gabapentin Tmax (time to peak blood levels)", "setting": "[1]; [6]", "value": "5.08 ± 1.62", "unit": "h"},
      {"measurement": "percent of the gabapentin dose recovered in urine", "setting": "[1]; [6]", "value": "46.5±15.8", "unit": "%"},
      {"measurement": "apparent terminal elimination half-life for gabapentin in blood", "setting": "[1]; [7]", "value": "5.38 ± 0.80", "unit": "h"},
      {"measurement": "percent of the gabapentin dose recovered in urine", "setting": "[1]; [7]", "value": "73.7±7.2", "unit": "%"},
      {"measurement": "increase of exposure to gabapentin in the presence of food compared to fasted subjects", "setting": "[1]; sustained release tablets 2×600 mg oral, fed vs fasted", "value": 52, "unit": "%"},
      {"measurement": "gabapentin Tmax (time to peak blood levels)", "setting": "[1]; sustained release tablets 2×600 mg oral, in the presence of food", "value": "8.40 ± 2.07", "unit": "h"},
      {"measurement": "AUC of compound (3) in blood as percent of corresponding AUC of gabapentin in blood", "setting": "[1]; fasted subjects", "value": 0.3, "unit": "%"},
      {"measurement": "maximum intact compound (3) concentration as percent of corresponding peak gabapentin concentration", "setting": "[1]; fasted subjects", "value": "approximately 1.0%"},
      {"measurement": "AUC of compound (3) in blood as percent of corresponding AUC of gabapentin in blood", "setting": "[1]; fed subjects", "value": "< 0.1", "unit": "%"},
      {"measurement": "maximum intact compound (3) concentration as percent of corresponding peak gabapentin concentration", "setting": "[1]; fed subjects", "value": "approximately 0.3%"},
      {"measurement": "Tmax", "setting": "[2]", "value": "2 to 2.6", "unit": "h"}
    ]},
    {"smiles": "NCC1(CC(=O)O)CCCCC1", "note": "[gabapentin]", "values": [
      {"measurement": "Tmax", "setting": "[3]", "value": "2.8 to 3.3", "unit": "h"},
      {"measurement": "typical Tmax of immediate release gabapentin", "setting": "[4]", "value": "2 to 4", "unit": "h"},
      {"measurement": "patients with partial or complete relief of vulvar pain symptoms", "setting": "[5]; amitriptyline non-responders", "value": "Eighty-two"},
      {"measurement": "patients reporting side effects such as headaches, nausea, vomiting, fatigue, and dizziness", "setting": "[5]", "value": "over half the patients"}
    ]}
  ]
}
